Data on five compounds can be found in US5698547A, “Cephalosporin antibiotics” (Microcide Pharmaceuticals, Inc., priority 1995, dated 1997).

Assay [1] relates to MRSA strains. The note with it: in words, reported; cited from earlier work.
For assay [2], the system named is S. aureus Col (Meth^R) (lac^-). In words: MIC by agar dilution, S. aureus Col (Meth^R) (lac^-). The note with it: for MIC: agar dilution, S. aureus Col (Meth^R) (lac^-); for activity against S. aureus Col: in words, PBP2a producer. The class given is cell-based. In short, it runs like this:
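Log-phase isolates were spot-inoculated at about 10^4 cfu onto Mueller-Hinton agar carrying duplicate two-fold compound levels, 128 μg/mL to ≤0.25 μg/mL, following NCCLS (1991). Plates were read after 16-20 h at 35°-36° C. The lowest growth-inhibiting concentration gave the MIC (μg/ml).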
On the technique in general: In agar dilution the substance is mixed into plates at graded concentrations.

Assay [3] concerns methicillin-susceptible S. aureus strain ATCC 13709. In words: murine model for lethal bacteremic peritonitis. The class given is in vivo, female Swiss-Webster mice. The settings on record: subcutaneous, 72 h. In short, it runs like this:
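Female Swiss-Webster mice challenged IP with an LD100 titer of bacteria in 7% hog gastric mucin; groups of 10 treated SC with twofold drug increments (0.01–512 mg/kg) as two equal doses at challenge and 2 h later. Survival followed for 72 h; PD50 (total mg/kg) calculated by probit method.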

For assay [4], the system named is S. aureus strain ATCC 13709. In words: Challenge strain MIC. The class given is cell-based. The settings on record: Staphylococcus aureus, ATCC13709; S. aureus ATCC 13709; read-out: Challenge str MIC. The method, then: (§1) The compounds of the invention were evaluated against several β-lactamresistant bacteria strains by determining the minimum inhibitory concentration (MIC, μg/ml) of each compound with respect to each strain. The MIC, the lowest concentration of antibiotic which inhibits growth of the test organism, was determined by the agar dilution method.
(§2) To determine the MIC for bacterial isolates, the test compound was incorporated in a series of two-fold dilutions into liquified Mueller-Hinton agar. Upon solidification, a number of different bacterial strains were spot inoculated with a replicating device onto the agar surface. […] The procedures used in these studies have been standardized by the National Committee for Clinical Laboratory Standards (NCCLS), as per the NCCLS publication entitled METHODS FOR DILUTION ANTIMICROBIAL SUSCEPTIBILITY TESTS (1991), which is incorporated herein by reference.
reported for challenge with methicillin-susceptible S. aureus

Assay [5] deals with S. aureus Col8A (Meth^S) (lac^-). In words: MIC by agar dilution, S. aureus Col8A (Meth^S) (lac^-). In kind it is cell-based. The settings on record: for activity against S. aureus Col 8A: in words, lacks PBP2a. How it is done: as §1, §2
(§3) Aliquots of antimicrobial agents were prepared in phosphate buffered saline (PBS) at pH 7.2. Tween 20 or DMSO was used as a solubilizing vehicle as needed. Standard methods of vortexing, sonicating and gentle heat were used to facilitate solubilizing the test agent. Typically, the concentration of the stock solution was 10× that of the highest drug concentration tested. A 1.28 mg/mL stock solution was used with a subsequent highest working concentration of 128 μg/mL. Serial two-fold dilutions were done through ≤0.25 μg/mL. Each drug level was tested in duplicate. Two-fold drug dilutions were done in sterile 50 mL tubes with a final drug volume of 5 mL. Upon the addition of 45 mL of molten agar, a 10-fold dilution resulted. Two, 25 mL. plates were then poured into 15×150 mm square Petri plates with grids and allowed to harden.
(§4) A control plate with a reference drug, either cefotaxime, vancomycin or imipenem, was used as the positive growth control. Stock concentrations of reference antibiotics were prepared and frozen at -80° C. Upon preparation, the control plates were sealed and stored in the refrigerator for up to 1 week prior to use; however, imipenem control plates had to be prepared just prior to use. All test plates were used within 24 hours of preparation.
(§5) Satisfactory results were obtained where the inoculum contained about 10^4 colony forming units (cfu) ±0.5 logs. Starting with pure cultures of the test isolates on agar plates, a few isolated colonies were transferred to a tube of nutrient broth and allowed to grow 4-6 hours at 35°-36° C. to reach log-phase growth. Dropwise addition of the broth culture to PBS was done to match a 0.5 McFarland turbidity standard equal to 10^8 cfu/mL. This was further diluted ten-fold in PBS to reach a working inoculum concentration of 10^7 cfu/mL. When 1 μL of the working inoculum was applied to the agar surface a concentration of about 10^4 cfu per spot was obtained.
(§6) Disposable sterile 1 μL loops were used to inoculate test plates, with each isolate in a designated grid on the agar plate. An alternate method of inoculation involved the use of a replica plater, a device with 48 steel pins allowing the simultaneous inoculation of multiple isolates. After the spots had dried, the plates were incubated at 35°-36° C. for 16-20 hours. Endpoints were assessed as the minimum inhibitory concentration (MIC) of antimicrobial agent.
The novel agents of this invention are notable for their enhanced activity against S. aureus Col and Enterococci (E. faecium and E. faecalis). The S. aureus Col strain is a high-level PBP2a producer, whereas S. aureus Col 8A, its isogenic partner, lacks PBP2a. […] Thus, the compounds of the present invention are effective against PBP2a-producing bacteria.

The test system of assay [6] is Enterococci (E. faecium and E. faecalis). In words: In vitro antibacterial evaluation, Enterococci. The class given is cell-based. The settings on record: in words. How it is done:
as §1, §2, §3
A control plate with a reference drug, either cefotaxime, vancomycin or imipenem, was used as the positive growth control. […]
(§7) Disposable sterile 1 μL loops were used to inoculate test plates, with each isolate in a designated grid on the agar plate. […] Endpoints were assessed as the minimum inhibitory concentration (MIC) of antimicrobial agent.

Assay [7] relates to S. aureus ATCC 25923. In words: MIC by agar dilution, S. aureus ATCC 25923. In kind it is cell-based. The method, then:
as §1, §2
(§8) Aliquots of antimicrobial agents were prepared in phosphate buffered saline (PBS) at pH 7.2. Tween 20 or DMSO was used as a solubilizing vehicle as needed. Standard methods of vortexing, sonicating and gentle heat were used to facilitate solubilizing the test agent. […]
as §7

Assay [8] concerns S. epidermidis ATCC 31432. In words: MIC by agar dilution, S. epidermidis ATCC 31432. The class given is cell-based. The method, then:
as §1, §2, §8, §7

Assay [9] has as its system S. aureus 76 (Meth^R) (lac^+). In words: MIC by agar dilution, S. aureus 76 (Meth^R) (lac^+). In kind it is cell-based. The method, then:
as §1, §2, §3, §4, §5, §6

For assay [10], the system named is S. haemolyticus (Meth^R). In words: MIC by agar dilution, S. haemolyticus (Meth^R). In kind it is cell-based. The method, then:
as §1, §2, §3, §4, §5, §6

Assay [11] relates to E. faecium ATCC 35667. In words: MIC by agar dilution, E. faecium ATCC 35667. The class given is cell-based. The method, then: as §1, §2, §3, §4, §5, §6
The subject of assay [12] is E. faecalis ATCC 29212. In words: MIC by agar dilution, E. faecalis ATCC 29212. The class given is cell-based. How it is done:
as §1, §2, §3, §4, §5, §6

In assay [13] the test system is E. coli ATCC 25922. In words: MIC by agar dilution, E. coli ATCC 25922. In kind it is cell-based. How it is done:
as §1, §2, §3, §4, §5, §6

Assay [14] relates to P. aeruginosa ATCC 27853. In words: MIC by agar dilution, P. aeruginosa ATCC 27853. In kind it is cell-based. The method, then: as §1, §2, §3, §4, §5, §6
[15] abbreviates: Staphylococcus aureus, read-out: MIC.

Converted amounts (≈) assume the structure as drawn. “And” between values parts separate entries of the source, which are not always exact repeats. Equal entries are not always repeated. Structures can show the parent of a compound that is named as a salt. Where two headings read alike, the source gives them in different places.

`C[C@@H](O)[C@H]1C(=O)N2C(C(=O)O)=C(SCCN=CN)C[C@H]12` [imipenem]: in assay [1], the “activity against MRSA strains” value is on record as “active against a few MRSA strains”.
On to `N=C(N)NCCSCC(=O)N[C@@H]1C(=O)N2C(C(=O)O)=C(Sc3ccccc3CSC(=N)N)CS[C@H]12` [Cmpd 137, (7R)-7-[((2-guanidinoethylthio)acetyl)amino]-3-(2-isothiouroniummethylphenylthio)-3-cephem-4-carboxylate, trifluoroacetic acid salt], for which the MIC was determined as 2 µg/mL in assay [2] (setting [15]) and 0.125 µg/mL in assay [4]. Also, the Mortality in assay [3] (dose 0.0391 mg/kg) was 8/10; in assay [3] (dose 0.0781 mg/kg) it was 9/10; in [3] (dose 0.1562 mg/kg, trifluoroacetic acid salt) it was 7/10 and 9/10; in assay [3] (dose 0.3125 mg/kg, trifluoroacetic acid salt), 5/10 and 8/10; in assay [3] (dose 0.625 mg/kg, trifluoroacetic acid salt) it was 6/10 and 1/10; in assay [3] (dose 1.25 mg/kg) it was 0/10. Besides, in [3] (dose 2.5 mg/kg), the Mortality was 0/10. For the same compound, in assay [3] (two equal doses, S. aureus ATCC 13709 IP challenge, trifluoroacetic acid salt, 4320 min), the ED50 was determined as 0.38 mg/kg.
As for `O=C(Cc1ccccc1)N[C@@H]1C(=O)N2C(C(=O)O)=C(Sc3ccccc3-c3ccccc3)CS[C@H]12` [Cmpd 9, (7R)-7-[(Phenylacetyl)amino]-3-(2-biphenylthio)-3-cephem-4-carboxylic acid], the MIC in assay [2] (setting [15]) was found to be 4 µg/mL (≈ 7.96 µM). For the same compound, the “activity against S. aureus Col” value in [2] is recorded as “broad activity”. Besides, in assay [5], the “activity against S. aureus Col 8A” value is given as “broad activity”. In [6], the “activity against Enterococci” value was “broad activity”.
“(7R)-7-[(Phenylacetyl)amino]-3-(2,3-dihydro-2,2-dimethylbenzofuran-7-yl)-3-cephem-4-carboxylic acid [Cmpd 55]”: the MIC in assay [7] was < 0.25 µg/mL; in [8], < 0.25 µg/mL; in [2], 4 µg/mL; in assay [9], 16 µg/mL; in [5] (agar dilution, S. aureus Col8A (Meth^S) (lac^-)), < 0.25 µg/mL; in assay [10] it was 16 µg/mL. Further, the MIC in assay [11] was 8 µg/mL; in assay [12], 16 µg/mL; in [13] it was > 32 µg/mL; in [14], > 32 µg/mL.
Regarding `O=C(Cc1ccccc1)N[C@@H]1C(=O)N2C(C(=O)O)=C(Sc3ccccc3I)CS[C@H]12` [Cmpd 6, (7R)-7-[(Phenylacetyl)amino]-3-(o-iodophenylthio)-3-cephem-4-carboxylic acid], the “activity against S. aureus Col” value in [2] is listed as “broad activity”. The “activity against S. aureus Col 8A” value in assay [5] was “broad activity”. In addition, the “activity against Enterococci” value in [6] is on record as “broad activity”. Besides, the Mortality was 9/10 in [3] (dose 0.625 mg/kg); 4/10 in assay [3] (dose 1.25 mg/kg); 8/10 in [3] (dose 2 mg/kg); 4/10 in assay [3] (dose 2.5 mg/kg); 5/10 in [3] (dose 4 mg/kg); 1/10 in [3] (dose 5 mg/kg). The Mortality is given as 1/10 in assay [3] (dose 8 mg/kg), 1/10 in assay [3] (dose 10 mg/kg) and 0/10 in assay [3] (dose 16 mg/kg).

Broadly, the MIC is the lowest concentration that inhibits growth of the organism. As usually defined, the ED50 is the midpoint of the dose-response relation.
